Consider one substance from patent US8946381B2, “Compositions and uses thereof for the treatment of wounds” (Phylogica Limited, priority 2006, dated 2015).

“Also recorded” adds a separate entry of the source.

In experiment [1] the test system is full-thickness burn wound. Put plainly: full-thickness burn wound model in mice, gross morphology and re-epithelialisation. The experiment is classed as in vivo, C57/B16 mice. The procedure:
8 week old C57/B16 mice were purchased from the Animal Resource Center, Murdoch University, Western Australia and used for all experiments. All experiments were approved by the necessary institutional animal ethics committees and were performed in accordance with the National Health and Medical Research Council (NHMRC) Australian Code of Practice for the Care and Use of Animals for Scientific Purposes.
(§1) A full-thickness burn wound was generated in a murine subject using a modified protocol based on a model previously described (Bruen et al., J Surg Res, 120: 12-20, 2004). Briefly, mice (n=34) were anesthetised (xylazine (10 mg/kg) and ketamine (100 mg/kg)) and subsequently given a full-thickness 10 mm diameter burn by contact with a brass rod (65 g) heated to 95° C. and applied for 9 seconds. 10 control animals were sacrificed post-burn, and histology confirmed all burns were full-thickness. The remaining animals (n=24) were re-hydrated and given analgesics subcutaneously immediately post-burn. The wounds were then dressed using a Tegapore™ membrane dressing (3M Healthcare Ltd) and either phosphate buffered saline (PBS) or PBS containing 20 μM peptide were instilled into the Tegapore™ and administered topically. The mice were then wrapped with a secondary absorbent dressing with minimal pressure so as not to constrict breathing and to allow free movement of the animal after recovery. Ten minutes post-injury, dressings were removed and animals allowed to recover from anesthesia in their cages with feed and water provided ad libitum.
Wounds were harvested on post-injury days 1, 3, 7 and 11 (n=3 for each time-point for both treated and control groups). Each wound was bisected along the cranial-caudal axis and one half of the tissue fixed in 4% paraformaldehyde solution and the other half stored as frozen tissue. Haematoxylin and Eosin stained sections were used to determine the quality of wound healing.
Progress of re-epithelialisation was quantitated by measuring distance between leading epithelial edges using an eye-piece graticule on histological slides. Difference between treated and control wounds was analysed using standard two-tail t-TEST for two-samples assuming unequal variance. p<0.05 is defined as the level of statistical significance.

The subject of experiment [2] is apoptosing epidermal cells surrounding the burn injury. Put plainly: TUNEL assay on burn wound tissue sections. The experiment is classed as in vivo, C57/B16 mice. To be noted: one day after burning. On the procedure: as §1, with “Ten minutes post-injury, dressings were removed and animals allowed to recover from anesthesia in their cages with feed and water provided ad libitum.” left out
Tissue sections were labelled using TUNEL (Tdt-mediated dUTP Nick End Labelling) assay as previously described 13. […] Intensity of TUNEL staining was quantitated using Image J software (available from The National Institutes of Health, USA). Intensity of staining of individual nuclei were measured and normalised against the background. […]

The subject of another experiment is HaCaT keratinocytes. Put plainly: MTT colorimetric proliferation assay, keratinocytes. The experiment is classed as cell-based. To be noted: 100 nm, 1 μM or 10 μM, 24, 48 or 72 hours. The procedure:
(§2) Cultures of keratinocytes (HaCaT cells) or fibroblasts were cultured in a microwell plate the presence of a peptide analog comprising the amino acid sequence set forth in SEQ ID NO: 104 at a concentration of 100 nm, 1 μM or 10 μM. Following an incubation period 24 hours, 48 hours, or 72 hours, cells were incubated in the presence of MTT for a sufficient time for a mitochondrial dehydrogenase enzyme from viable cells to cleave the tetrazolium rings of the pale yellow MTT and form dark blue formazan crystals. Cells were then solubilized and the level of […] crystals determined using a microtitre plate reader at 492 nm.

The next experiment deals with fibroblast cells. As to the kind of experiment: MTT colorimetric proliferation assay, fibroblasts. The experiment is classed as cell-based. To be noted: 100 nm, 1 μM or 10 μM, 24, 48 or 72 hours. On the procedure: as §2
On the technique in general: Tetrazolium dyes change colour on reduction, which living cells bring about.

As for “H-rerrsssqiGGsrisqyaGrrrqrrkkrG-NH2 [SEQ ID NO: 104]”, in experiment [1] (day 7 post-burn), the “gross morphology of wound” value was “Early reepithelialization is present and separation of the eschar evident”. For the same substance, the “gap without epidermis (not re-epithelialized)” value in experiment [1] (day 7 post-burn, 20 μM peptide in PBS topical) is given as 2 mm. The re-epithelialization of wound entry in experiment [1] (day 11 post-burn, 20 μM peptide in PBS topical) is recorded as “re-epithelialized by day 11; also recorded: all the treated wounds are covered; also recorded: completely re-epithelialized”. This substance also registered an eschar diameter in experiment [1] (day 11 post-burn, 20 μM peptide in PBS topically via Tegapore dressing for ten minutes) below 2 mm. In addition, the “scarring (de novo hair follicle morphogenesis)” value in experiment [1] (day 11 post-burn, histology) is “scarring has not occurred”. In experiment [1] (within 24 hours post-injury, 20 μM peptide in PBS topical), the “wound size between leading epidermal edges” value amounted to 10 mm. Moreover, the “TUNEL staining intensity vs control” value in experiment [2] (500 μm from the wound edge) is given as “marked difference in intensity”. Further, the “TUNEL positive staining in epidermis” value in experiment [2] (1500 μm from the wound edge) was “complete lack of positive staining”. Also, the “cellular proliferation (MTT) vs untreated cells” value in the experiment on HaCaT keratinocytes was “increased cellular proliferation rates; also recorded: enhanced and/or induced proliferation”. Further, the “cellular proliferation (MTT)” value in the experiment with fibroblast cells is reported as “did not stimulate proliferation”.
